# Data: US20180369264A1, “COMBINATION OF A CARDIAC STEROID AND AN AKT INHIBITOR FOR THE TREATMENT OF CARDIOVASCULAR DISEASES AND DISORDERS” (YISSUM RESEARCH DEVELOPMENT COMPANY OF THE HEBREW …, priority 2015, published 2018)
# Legend:
# ERK = ERK phosphorylation in adult zebrafish heart (Western blot); assay type: in vivo; conditions: wt adult zebrafish, 1 μM in swimming media, 5 minutes
# Description: (§1) Adult zebrafish (˜12-months-old) were transferred to swimming medium containing 1 μM of CS drugs, as specified in the following examples. At various time points (5-30 min), as indicated in the following examples, the zebrafish were transferred to perfusion buffer and the hearts were immediately removed and transferred to RIPA lysis buffer (Sigma-Aldrich), and protease inhibitor cocktail (P8340, Sigma-Aldrich), at a 1:100 dilution). The tissue was homogenized in an ultrasonic homogenizer (Microson, NY, USA) and aliquots of the homogenate were stored at −70° C. until used.
# Protein dilution and separation on SDS-PAGE electrophoresis, their transfer to a polyvinylidene fluoride membrane were carried out. […] The membranes were washed with TBS containing 0.1% Tween and exposed to horseradish peroxidase-conjugated secondary goat anti-rabbit IgG antibody (1:50,000). The membranes were stripped prior to their exposure to a different antibody. Detection was carried out with the aid of a Luminata™ Crescendo Western HRP Substrates, according to the manufacturer's instructions.
# Akt = Akt phosphorylation in adult zebrafish heart (Western blot); assay type: in vivo; conditions: wt adult zebrafish, 1 μM in swimming media, 5 minutes
# Description: as §1
# Protein dilution and separation on SDS-PAGE electrophoresis, their transfer to a polyvinylidene fluoride membrane were carried out. The membranes were incubated for 1 hour at room temperature with one of the specific antibodies against Phospho-p44/42 MAPK (Erk1/2) (Thr202/Tyr204), Rabbit mAb #4370 (Cell signaling) or Phospho-Akt (Ser473) (193H12), Rabbit mAb #4058 (Cell signaling), at a 1:1000 dilution in TBS containing 0.1% Tween. The membranes were washed with TBS containing 0.1% Tween and exposed to horseradish peroxidase-conjugated secondary goat anti-rabbit IgG antibody (1:50,000). The membranes were stripped prior to their exposure to a different antibody. Detection was carried out with the aid of a Luminata™ Crescendo Western HRP Substrates, according to the manufacturer's instructions.
smiles,measurement,setting,value
"C[C@@H]1O[C@@H](O[C@H]2C[C@@H](O)[C@]3(CO)[C@H]4[C@H](O)C[C@]5(C)[C@@H](C6=CC(=O)OC6)CC[C@]5(O)[C@@H]4CC[C@]3(O)C2)[C@H](O)[C@H](O)[C@H]1O [ouabain, 3-(alpha-L-Rhamnopyranosyloxy)-1beta,5beta,11alpha,14,19-pentahydroxy-5beta-card-20(22)-enolide]",increase in ERK phosphorylation in the heart,ERK,130±17.95%
same,increase in Akt phosphorylation in the heart,Akt,100±20.06%
